Assay results from ChEMBL document CHEMBL3994647, “Synthesis and in vitro cytotoxic evaluation of new 1H-benzo[d]imidazole derivatives of dehydroabietic acid” (Bioorg Med Chem Lett, 2017).

Experiments:
HepG2 = test: Cytotoxicity against human HepG2 cells assessed as reduction in cell viability after 48 hrs by MTT assay; format: functional, cell-based; conditions: HepG2, 48 h
L02 = test: Cytotoxicity against human LO2 cells assessed as reduction in cell viability after 48 hrs by MTT assay; format: cell-based; conditions: L02, 48 h
SMMC-7721 [1] = test: Cytotoxicity against human SMMC7721 cells assessed as reduction in cell viability after 48 hrs by MTT assay; format: functional, cell-based; conditions: SMMC-7721, 48 h
SMMC-7721 [2] = test: Cell cycle arrest in human SMMC7721 cells assessed as accumulation at G0/G1 phase at 0.36 uM after 24 hrs by propidium iodide staining based flow cytometry (reference value: 72.89%); format: functional
SMMC-7721 [3] = test: Induction of apoptosis in human SMMC7721 cells assessed as late apoptotic cells at 0.72 uM after 24 hrs by Annexin V-APC/7-AAD staining based flow cytometry (reference value: 10.72%); format: functional
SMMC-7721 [4] = test: Induction of apoptosis in human SMMC7721 cells assessed as necrotic cells at 0.72 uM after 24 hrs by Annexin V-APC/7-AAD staining based flow cytometry (reference value: 0.77%); format: functional
SMMC-7721 [5] = test: Cell cycle arrest in human SMMC7721 cells assessed as accumulation at G0/G1 phase at 0.72 uM after 24 hrs by propidium iodide staining based flow cytometry (reference value: 72.89%); format: functional
SMMC-7721 [6] = test: Induction of apoptosis in human SMMC7721 cells assessed as live cells at 0.72 uM after 24 hrs by Annexin V-APC/7-AAD staining based flow cytometry (reference value: 81.07%); format: functional
SMMC-7721 [7] = test: Induction of apoptosis in human SMMC7721 cells assessed as live cells at 0.36 uM after 24 hrs by Annexin V-APC/7-AAD staining based flow cytometry (reference value: 81.07%); format: functional
SMMC-7721 [8] = test: Cell cycle arrest in human SMMC7721 cells assessed as accumulation at G2/M phase after 24 hrs by propidium iodide staining based flow cytometry; format: functional
SMMC-7721 [9] = test: Induction of apoptosis in human SMMC7721 cells assessed as late apoptotic cells at 0.36 uM after 24 hrs by Annexin V-APC/7-AAD staining based flow cytometry (reference value: 10.72%); format: functional
SMMC-7721 [10] = test: Cell cycle arrest in human SMMC7721 cells assessed as accumulation at G2/M phase at 0.18 uM after 24 hrs by propidium iodide staining based flow cytometry (reference value: 3.43%); format: functional
SMMC-7721 [11] = test: Cell cycle arrest in human SMMC7721 cells assessed as accumulation at G2/M phase at 0.72 uM after 24 hrs by propidium iodide staining based flow cytometry (reference value: 3.43%); format: functional
SMMC-7721 [12] = test: Induction of apoptosis in human SMMC7721 cells assessed as necrotic cells at 0.18 uM after 24 hrs by Annexin V-APC/7-AAD staining based flow cytometry (reference value: 0.77%); format: functional
SMMC-7721 [13] = test: Cell cycle arrest in human SMMC7721 cells assessed as accumulation at S phase at 0.18 uM after 24 hrs by propidium iodide staining based flow cytometry (reference value: 23.68%); format: functional
SMMC-7721 [14] = test: Induction of apoptosis in human SMMC7721 cells assessed as necrotic cells at 0.36 uM after 24 hrs by Annexin V-APC/7-AAD staining based flow cytometry (reference value: 0.77%); format: functional
SMMC-7721 [15] = test: Induction of apoptosis in human SMMC7721 cells assessed as late apoptotic cells at 0.18 uM after 24 hrs by Annexin V-APC/7-AAD staining based flow cytometry (reference value: 10.72%); format: functional
SMMC-7721 [16] = test: Induction of apoptosis in human SMMC7721 cells assessed as live cells at 0.18 uM after 24 hrs by Annexin V-APC/7-AAD staining based flow cytometry (reference value: 81.07%); format: functional
SMMC-7721 [17] = test: Cell cycle arrest in human SMMC7721 cells assessed as accumulation at G0/G1 phase at 0.18 uM after 24 hrs by propidium iodide staining based flow cytometry (reference value: 72.89%); format: functional
SMMC-7721 [18] = test: Induction of apoptosis in human SMMC7721 cells after 24 hrs by Annexin V-APC/7-AAD staining based flow cytometry; format: functional, cell-based
SMMC-7721 [19] = test: Cell cycle arrest in human SMMC7721 cells assessed as accumulation at S phase at 0.36 uM after 24 hrs by propidium iodide staining based flow cytometry (reference value: 23.68%); format: functional
SMMC-7721 [20] = test: Induction of apoptosis in human SMMC7721 cells assessed as early apoptotic cells at 0.36 uM after 24 hrs by Annexin V-APC/7-AAD staining based flow cytometry (reference value: 7.44%); format: functional
SMMC-7721 [21] = test: Cell cycle arrest in human SMMC7721 cells assessed as accumulation at S phase at 0.72 uM after 24 hrs by propidium iodide staining based flow cytometry (reference value: 23.68%); format: functional
SMMC-7721 [22] = test: Induction of apoptosis in human SMMC7721 cells assessed as early apoptotic cells at 0.18 uM after 24 hrs by Annexin V-APC/7-AAD staining based flow cytometry (reference value: 7.44%); format: functional
SMMC-7721 [23] = test: Induction of apoptosis in human SMMC7721 cells assessed as early apoptotic cells at 0.72 uM after 24 hrs by Annexin V-APC/7-AAD staining based flow cytometry (reference value: 7.44%); format: functional
SMMC-7721 [24] = test: Cell cycle arrest in human SMMC7721 cells assessed as accumulation at G2/M phase at 0.36 uM after 24 hrs by propidium iodide staining based flow cytometry (reference value: 3.43%); format: functional

COC(=O)[C@]1(C)CCC[C@]2(C)c3cc(Br)c4nc(NCc5cc(Cl)ccc5O)[nH]c4c3CC[C@@H]12
IC50 (HepG2): 11.8 µM | IC50 (L02): 26.8 µM | IC50 (SMMC-7721 [1]): 3.19 µM

COC(=O)[C@]1(C)CCC[C@]2(C)c3cc(Br)c4nc(NCc5ccccc5O)[nH]c4c3CC[C@@H]12
IC50 (HepG2): 22.5 µM | IC50 (L02): > 50 µM | IC50 (SMMC-7721 [1]): 3.15 µM

COC(=O)[C@]1(C)CCC[C@]2(C)c3cc(Br)c4nc(/N=C/c5cccc(F)c5O)[nH]c4c3CC[C@@H]12
IC50 (HepG2): 0.43 µM | IC50 (L02): 8.35 µM | IC50 (SMMC-7721 [1]): 2 µM

COC(=O)[C@]1(C)CCC[C@]2(C)c3cc(Br)c4nc(NCc5ccc(F)cc5O)[nH]c4c3CC[C@@H]12
IC50 (HepG2): 4.6 µM | IC50 (L02): 22.1 µM | IC50 (SMMC-7721 [1]): 10.6 µM

CCN(CC)c1ccc(CNc2nc3c(Br)cc4c(c3[nH]2)CC[C@H]2[C@](C)(C(=O)OC)CCC[C@]42C)c(O)c1
IC50 (HepG2): 3.38 µM | IC50 (L02): 12.2 µM | IC50 (SMMC-7721 [1]): 3.76 µM

COC(=O)[C@]1(C)CCC[C@]2(C)c3cc(Br)c4nc(NCc5ccc6ccccc6c5O)[nH]c4c3CC[C@@H]12
IC50 (HepG2): 21.2 µM | IC50 (L02): > 50 µM | IC50 (SMMC-7721 [1]): 22.4 µM

COC(=O)[C@]1(C)CCC[C@]2(C)c3cc(Br)c4nc(/N=C/c5cc(F)ccc5O)[nH]c4c3CC[C@@H]12
IC50 (HepG2): 0.61 µM | Activity (SMMC-7721 [2]): 73.94% | Activity (SMMC-7721 [3]): 81.27% | IC50 (L02): 3.89 µM | Activity (SMMC-7721 [4]): 1% | Activity (SMMC-7721 [5]): 66.4% | Activity (SMMC-7721 [6]): 7.97% | Activity (SMMC-7721 [7]): 59.86% | Activity (SMMC-7721 [8]): Dose-dependent effect | Activity (SMMC-7721 [9]): 10.21% | Activity (SMMC-7721 [10]): 5.96% | Activity (SMMC-7721 [11]): 10.91% | Activity (SMMC-7721 [12]): 0.95% | Activity (SMMC-7721 [13]): 17.11% | Activity (SMMC-7721 [14]): 0.87% | Activity (SMMC-7721 [15]): 10.44% | Activity (SMMC-7721 [16]): 75.91% | Activity (SMMC-7721 [17]): 76.93% | Activity (SMMC-7721 [18]): Dose-dependent effect | Activity (SMMC-7721 [19]): 19.61% | Activity (SMMC-7721 [20]): 29.05% | IC50 (SMMC-7721 [1]): 0.36 µM | Activity (SMMC-7721 [21]): 22.69% | Activity (SMMC-7721 [22]): 12.71% | Activity (SMMC-7721 [23]): 9.75% | Activity (SMMC-7721 [24]): 6.45%

COC(=O)[C@]1(C)CCC[C@]2(C)c3cc(Br)c4nc(/N=C/c5cc([N+](=O)[O-])ccc5O)[nH]c4c3CC[C@@H]12
IC50 (HepG2): 2.4 µM | IC50 (L02): 8.71 µM | IC50 (SMMC-7721 [1]): 1.28 µM

COC(=O)[C@]1(C)CCC[C@]2(C)c3cc(Br)c4nc(/N=C/c5cc(C)ccc5O)[nH]c4c3CC[C@@H]12
IC50 (HepG2): 0.12 µM | IC50 (L02): 3.02 µM | IC50 (SMMC-7721 [1]): 0.56 µM

COC(=O)[C@]1(C)CCC[C@]2(C)c3cc(Br)c4nc(/N=C/c5cc(Cl)cc(Cl)c5O)[nH]c4c3CC[C@@H]12
IC50 (HepG2): 0.69 µM | IC50 (L02): 7.21 µM | IC50 (SMMC-7721 [1]): 1.72 µM

COC(=O)[C@]1(C)CCC[C@]2(C)c3cc(Br)c4nc(NCc5cc(F)ccc5O)[nH]c4c3CC[C@@H]12
IC50 (HepG2): 4.6 µM | IC50 (L02): 31.4 µM | IC50 (SMMC-7721 [1]): 10.6 µM

COC(=O)[C@]1(C)CCC[C@]2(C)c3cc(Br)c4nc(/N=C/c5ccc(F)cc5O)[nH]c4c3CC[C@@H]12
IC50 (HepG2): 1.24 µM | IC50 (L02): 19 µM | IC50 (SMMC-7721 [1]): 12.2 µM

COC(=O)[C@]1(C)CCC[C@]2(C)c3cc(Br)c4nc(/N=C/c5ccccc5O)[nH]c4c3CC[C@@H]12
IC50 (HepG2): 0.21 µM | IC50 (L02): 6.27 µM | IC50 (SMMC-7721 [1]): 2.47 µM
